Results: publication PMC7355801, “Synthesis, Cyclooxygenases Inhibition Activities and Interactions with BSA of N-substituted 1H-pyrrolo[3,4-c]pyridine-1,3(2H)-diones Derivatives” (Molecules, 2020)

Legend:
[1] = molecular target: T1, bovine serum albumin (BSA) (Bos taurus, UniProt P02769); test: intrinsic fluorescence quenching, excitation […] nm; format: binding; details: 298 K, pH 7.4, no site marker
T1 construct: gene ALB; mature serum albumin, 583 residues, monomer

[2] = molecular target: T2, COX-1 (Ovis aries, UniProt P05979); test: colorimetric COX peroxidase inhibition kit, […] nm; format: biochemical; details: read-out: Cyclooxygenase Inhibition Assay IC50 [μM] / COX-1
T2 construct: gene PTGS1; homodimer
T2 sequence (P05979 25-600): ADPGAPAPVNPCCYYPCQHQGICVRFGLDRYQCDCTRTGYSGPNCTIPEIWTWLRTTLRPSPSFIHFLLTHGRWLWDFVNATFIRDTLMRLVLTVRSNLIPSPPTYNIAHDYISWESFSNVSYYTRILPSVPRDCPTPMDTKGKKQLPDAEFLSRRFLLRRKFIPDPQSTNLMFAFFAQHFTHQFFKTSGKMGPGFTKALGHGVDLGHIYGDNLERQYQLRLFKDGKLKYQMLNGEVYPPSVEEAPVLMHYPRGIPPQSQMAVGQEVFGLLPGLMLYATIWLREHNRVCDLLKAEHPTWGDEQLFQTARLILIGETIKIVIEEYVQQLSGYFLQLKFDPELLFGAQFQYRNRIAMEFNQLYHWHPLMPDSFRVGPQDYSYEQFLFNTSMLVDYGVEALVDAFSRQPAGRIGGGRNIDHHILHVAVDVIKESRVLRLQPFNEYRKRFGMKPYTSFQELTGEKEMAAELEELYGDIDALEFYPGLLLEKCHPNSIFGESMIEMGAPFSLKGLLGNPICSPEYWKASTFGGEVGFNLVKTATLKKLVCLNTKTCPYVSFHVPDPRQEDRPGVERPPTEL

T1 sequence (P02769 25-607): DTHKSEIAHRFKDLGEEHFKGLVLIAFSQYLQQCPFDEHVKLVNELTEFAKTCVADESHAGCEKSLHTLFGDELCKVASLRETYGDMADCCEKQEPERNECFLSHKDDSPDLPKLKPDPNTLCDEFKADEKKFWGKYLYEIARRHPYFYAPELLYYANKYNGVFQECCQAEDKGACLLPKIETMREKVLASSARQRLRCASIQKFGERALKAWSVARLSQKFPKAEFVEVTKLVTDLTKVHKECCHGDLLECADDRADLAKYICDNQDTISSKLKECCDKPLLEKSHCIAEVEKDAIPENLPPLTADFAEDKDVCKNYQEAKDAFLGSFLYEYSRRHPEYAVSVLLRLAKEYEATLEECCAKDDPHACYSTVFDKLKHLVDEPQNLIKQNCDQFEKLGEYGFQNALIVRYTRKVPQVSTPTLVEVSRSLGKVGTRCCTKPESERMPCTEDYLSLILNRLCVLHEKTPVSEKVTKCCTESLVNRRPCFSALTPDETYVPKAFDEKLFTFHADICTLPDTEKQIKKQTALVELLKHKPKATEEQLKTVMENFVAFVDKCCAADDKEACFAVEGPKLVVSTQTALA

Double log / Kb × 10^3 [dm^3.mol^-1] [1]	IC50 [2] [µM]	SMILES
5.37 × 10^3 dm^3·mol^−1	81.6	Cc1cc2c(c(=O)n1C)C(=O)N(CN1CCN(c3ccccc3)CC1)C2=O [A, 5,6-dimethyl-4-oxo-2-[(4-phenyl-1-piperazinyl)methyl]-1H-pyrrolo[3.4-c]pyridine-1,3(2H)-dione]
8.32 × 10^3 dm^3·mol^−1	93.2	Cc1cc2c(c(=O)n1C)C(=O)N(CN1CCN(c3cccc(C(F)(F)F)c3)CC1)C2=O [B]
11.51 × 10^3 dm^3·mol^−1	95.8	COc1ccccc1N1CCN(CN2C(=O)c3cc(C)n(C)c(=O)c3C2=O)CC1 [C]
4.82 × 10^3 dm^3·mol^−1	76.6	COc1nc(C)cc2c1C(=O)N(CN1CCCC1)C2=O [D, 4-Methoxy–N-[1-(N-pyrrolidine)-methyl]-6-methyl-1H-pyrrolo[3.4-c]pyridine-1,3(2H)-dione]
6.24 × 10^3 dm^3·mol^−1	99.2	COc1nc(C)cc2c1C(=O)N(CCN1CCOCC1)C2=O [E]
